Where a name gives a salt, the structure may show the parent alone.
Each compound was assayed on adjuvant-induced arthritis (assay: Developing Adjuvant-Induced Arthritis Test in Rats). Conditions: 50 mg/kg P.O. x 29; AUC of uninjected paw volumes, Days 16 through 30.
Assay type: in vivo, male Lewis-Wistar rats
With “5-{[3,5-bis(1,1-dimethylethyl)-4-hydroxyphenyl]methylene}-3-[2-(4-morpholinyl)ethyl]amino-4-thiazolidinone [Example 49]” the “% Inhibition of Uninjected Paw Volume Inflammation” value was 36%.

Same assay, conditions: Rattus norvegicus, po, 720 h; 25 mg/kg P.O. x 29; AUC of uninjected paw volumes, Days 16 through 30; read-out: % Inhibition of Uninjected Paw Volume Inflammation
`CCNN1CSC(=Cc2cc(C(C)(C)C)c(O)c(C(C)(C)C)c2)C1=O` [Example 52, 5-{[3,5-bis(1,1-dimethylethyl)-4-hydroxyphenyl]methylene}-3-(ethylamino)-4-thiazolidinone] gave an inhibition in vivo at 25 mg/kg of 45%.
`CCCNN1CSC(=Cc2cc(C(C)(C)C)c(O)c(C(C)(C)C)c2)C1=O` [Example 51, 5-{[3,5-bis(1,1-dimethylethyl)-4-hydroxyphenyl]methylene}-3-(propylamino)-4-thiazolidinone] showed an inhibition in vivo at 25 mg/kg of 39%.

Same assay, conditions: Rattus norvegicus, po, 720 h; 50 mg/kg P.O. x 29; AUC of uninjected paw volumes, Days 16 through 30; read-out: % Inhibition of Uninjected Paw Volume Inflammation
Compound `CCCNCCN1CSC(=Cc2cc(C(C)(C)C)c(O)c(C(C)(C)C)c2)C1=O` [Example 54, 5-{[3,5-bis(1,1-dimethylethyl)-4-hydroxyphenyl]methylene}-3-[2-(propylamino)ethyl]-4-thiazolidinone] has an inhibition in vivo at 50 mg/kg of 37.6%.
`CC(C)(C)c1cc(C=C2SCN(CCN)C2=O)cc(C(C)(C)C)c1O` [Example 27, 5-{[3,5-bis(1,1-dimethylethyl)-4-hydroxyphenyl]methylene}-3-(2-aminoethyl)-4-thiazolidinone] gave an inhibition in vivo at 50 mg/kg of 40%.
`CC(=C1SCN(N(C)C)C1=O)c1cc(C(C)(C)C)c(O)c(C(C)(C)C)c1` [Example 46, 5-{1-[3,5-bis(1,1-dimethylethyl)-4-hydroxyphenyl]methylmethylene}-3-(dimethylamino)-4-thiazolidinone] showed an inhibition in vivo at 50 mg/kg of 9%.
With `CC(C)(C)c1cc(C=C2SCN(C3CC3)C2=O)cc(C(C)(C)C)c1O` [Example 20, 5-{[3,5-bis(1,1-dimethylethyl)-4-hydroxyphenyl]methylene}-3-cyclopropyl-4-thiazolidinone] the inhibition in vivo at 50 mg/kg was 36%.
With `CC(C)(C)c1cc(CC2SC(=S)NC2=O)cc(C(C)(C)C)c1O` (stereo not drawn) [Example 8, 5-{[3,5-bis(1,1-dimethylethyl)-4-hydroxyphenyl]methyl}-2-thioxo-4-thiazolidinone] the inhibition in vivo at 50 mg/kg was 4%.
`CNN1CSC(=Cc2cc(C(C)(C)C)c(O)c(C(C)(C)C)c2)C1=O` [Example 47, 5-{[3,5-bis(1,1-dimethylethyl)-4-hydroxyphenyl]methylene}-3-(methylamino)-4-thiazolidinone] showed an inhibition in vivo at 50 mg/kg of 69.3%.
`Cc1cc(C=C2SCNC2=O)cc(C(C)(C)C)c1O` [Example 58, 5-{[3-(1,1-dimethylethyl)-4-hydroxy-5-methylphenyl]methylene}-4-thiazolidinone] gave an inhibition in vivo at 50 mg/kg of 16.9%.
`CN1C(=O)C(=Cc2cc(C(C)(C)C)c(O)c(C(C)(C)C)c2)SC1O` (stereo not drawn) [Example 71, 5-{[3,5-bis(1,1-dimethylethyl)-4-hydroxyphenyl]methylene}-2-hydroxy-3-methyl-4-thiazolidinone] was tested, and the inhibition in vivo at 50 mg/kg was 48.2%.
`C=CCN1CSC(=Cc2cc(C(C)(C)C)c(O)c(C(C)(C)C)c2)C1=O` [Example 24, 5-{[3,5-bis(1,1-dimethylethyl)-4-hydroxyphenyl]methylene}-3-(2-propenyl)-4-thiazolidinone] gave an inhibition in vivo at 50 mg/kg of 0%.
With `CCN(C)N1CSC(=Cc2cc(C(C)(C)C)c(O)c(C(C)(C)C)c2)C1=O` [Example 40, 5-{[3,5-bis(1,1-dimethylethyl)-4-hydroxyphenyl]methylene}-3-(ethylmethylamino)-4-thiazolidinone] the inhibition in vivo at 50 mg/kg was 23%.
For `CC(C)(C)c1cc(C=C2SCN(NCCO)C2=O)cc(C(C)(C)C)c1O` [Example 55, 5-{[3,5-bis(1,1-dimethylethyl)-4-hydroxyphenyl]methylene}-3-[(2-hydroxyethyl)amino]-4-thiazolidinone], the inhibition in vivo at 50 mg/kg was 96.2%.
Compound `CCCCN(C)N1CSC(=Cc2cc(C(C)(C)C)c(O)c(C(C)(C)C)c2)C1=O` [Example 41, 5-{[3,5-bis(1,1-dimethylethyl)-4-hydroxyphenyl]methylene}-3-(butylmethylamino)-4-thiazolidinone] has an inhibition in vivo at 50 mg/kg of 27%.
`CN(C)CCN1CSC(=Cc2cc(C(C)(C)C)c(O)c(C(C)(C)C)c2)C1=O` [Example 29, 5-{[3,5-bis(1,1-dimethylethyl)-4-hydroxyphenyl]methylene}-3-[2-(dimethylamino)ethyl]-4-thiazolidinone] showed an inhibition in vivo at 50 mg/kg of 49%.
`CC(C)(C)c1cc(C=C2SCN(N3CCOCC3)C2=O)cc(C(C)(C)C)c1O` [Example 45, 5-{[3,5-bis(1,1-dimethylethyl)-4-hydroxyphenyl]methylene}-3-(4-morpholinyl)-4-thiazolidinone] was tested, and the inhibition in vivo at 50 mg/kg was 36%.
`CC(C)(C)c1cc(C=C2SCN(CCNCc3ccccc3)C2=O)cc(C(C)(C)C)c1O` [Example 33, 5-{[3,5-bis(1,1-dimethylethyl)-4-hydroxyphenyl]methylene}-3-{2-[(phenylmethyl)amino]ethyl}-4-thiazolidinone hydrochloride] showed an inhibition in vivo at 50 mg/kg of 30.1%.
`Cc1cc(C=C2SCN(C)C2=O)cc(C)c1O` [Example 68, 5-[(4-hydroxy-3,5-dimethylphenyl)methylene]-3-methyl-4-thiazolidinone] was tested, and the inhibition in vivo at 50 mg/kg was 6.5%.
With `Cc1cc(C=C2SC(=S)N(N(C)C)C2=O)cc(C(C)(C)C)c1O` [Example 60, 5-{[3-(1,1-dimethylethyl)-4-hydroxy-5-methylphenyl]methylene}-3-dimethylamino-2-thioxo-4-thiazolidinone] the inhibition in vivo at 50 mg/kg was 40.6%.
With `Cc1cc(C=C2SCN(N)C2=O)cc(C(C)(C)C)c1O` [Example 59, 3-amino-5-{[3-(1,1-dimethylethyl)-4-hydroxy-5-methylphenyl]methylene}-4-thiazolidinone] the inhibition in vivo at 50 mg/kg was 19.8%.
`CN(C)N1C(=O)C(=Cc2cc(C(C)(C)C)c(O)c(C(C)(C)C)c2)SC1=S` [Example 19, 5-{[3,5-bis(1,1-dimethylethyl)-4-hydroxyphenyl]methylene}-3-dimethylamino-2-thioxo-4-thiazolidinone] gave an inhibition in vivo at 50 mg/kg of 20.7%.
`CCCc1cc(C=C2SCNC2=O)cc(CCC)c1O` [Example 57, 5-[(4-hydroxy-3,5-dipropylphenyl)methylene]-4-thiazolidinone] was tested, and the inhibition in vivo at 50 mg/kg was 44.1%.
`C#CCN(C)CCN1CSC(=Cc2cc(C(C)(C)C)c(O)c(C(C)(C)C)c2)C1=O` [Example 31, 5-{[3,5-bis(1,1-dimethylethyl)-4-hydroxyphenyl]methylene}-3-[2-(methyl-2-propynylamino)ethyl]-4-thiazolidinone] showed an inhibition in vivo at 50 mg/kg of 28.9%.
With `CC(C)(C)c1cc(C=C2SCN(CCNCCO)C2=O)cc(C(C)(C)C)c1O` [Example 30, 5-{[3,5-bis(1,1-dimethylethyl)-4-hydroxyphenyl]methylene}-3-[2-(2-hydroxyethylamino)ethyl]-4-thiazolidinone] the inhibition in vivo at 50 mg/kg was 44.1%.
Compound `CN1CCN(N2CSC(=Cc3cc(C(C)(C)C)c(O)c(C(C)(C)C)c3)C2=O)CC1` [Example 43, 5-{[3,5-bis(1,1-dimethylethyl)-4-hydroxyphenyl]methylene}-3-(4-methyl-1-piperazinyl)-4-thiazolidinone] has an inhibition in vivo at 50 mg/kg of 36%.
`CCCc1cc(C=C2SCN(C)C2=O)cc(CCC)c1O` [Example 56, 5-[(4-hydroxy-3,5-dipropylphenyl)methylene]-3-methyl-4-thiazolidinone] gave an inhibition in vivo at 50 mg/kg of 38.2%.
`CC(C)(C)c1cc(C=C2SCN(N3CCCCC3)C2=O)cc(C(C)(C)C)c1O` [Example 44, 5-{[3,5-bis(1,1-dimethylethyl)-4-hydroxyphenyl]methylene}-3-(1-piperidinyl)-4-thiazolidinone] was tested, and the inhibition in vivo at 50 mg/kg was 15%.
`CN(C)CCNCCN1CSC(=Cc2cc(C(C)(C)C)c(O)c(C(C)(C)C)c2)C1=O` [Example 32, 5-{[3,5-bis(1,1-dimethylethyl)-4-hydroxyphenyl]methylene}-3-{2-[[2-(dimethylamino)ethyl]amino]-ethyl}-4-thiazolidinone] gave an inhibition in vivo at 50 mg/kg of 48.6%.
With `CC(C)(C)c1cc(C=C2SCN(Cc3nnn[nH]3)C2=O)cc(C(C)(C)C)c1O` [Example 39, 5-{[3,5-bis(1,1-dimethylethyl)-4-hydroxyphenyl]methylene}-3-(1H-tetrazol-5-ylmethyl)-4-thiazolidinone] the inhibition in vivo at 50 mg/kg was 2%.
Work on `CC(=O)OCCCc1cc(C=C2SCN(C)C2=O)cc(CCCOC(C)=O)c1O` [Example 63, 5-{[3,5-bis[3-(acetyloxy)propyl]-4-hydroxyphenyl]methylene}-3-methyl-4-thiazolidinone] yielded an inhibition in vivo at 50 mg/kg of 9.8%.
In the case of `CN1CSC(=Cc2ccc(O)c(C(C)(C)C)c2)C1=O` [Example 66, 5-{[3-(1,1-dimethylethyl)-4-hydroxyphenyl]-methylene}-3-methyl-4-thiazolidinone], the inhibition in vivo at 50 mg/kg is reported as 26.1%.
`CC(=O)OCCCc1cc(C=C2SCN(N(C)C)C2=O)cc(CCCOC(C)=O)c1O` [Example 64, 5-{[3,5-bis[3-(acetyloxy)propyl]-4-hydroxyphenyl]methylene}-3-(dimethylamino)-4-thiazolidinone] showed an inhibition in vivo at 50 mg/kg of 5.5%.
`CC(C)(C)c1cc(C=C2SCN(N)C2=O)cc(C(C)(C)C)c1O` [Example 50, 3-amino-5-{[3,5-bis(1,1-dimethylethyl)-4-hydroxyphenyl]methylene}-4-thiazolidinone] gave an inhibition in vivo at 50 mg/kg of 62%.
With `CC(=C1SCN(C)C1=O)c1cc(C(C)(C)C)c(O)c(C(C)(C)C)c1` [Example 25, 5-{[3,5-bis(1,1-dimethylethyl)-4-hydroxyphenyl]methylmethylene}-3-methyl-4-thiazolidinone] the inhibition in vivo at 50 mg/kg was 8.5%.
In the case of `CNCCCN1CSC(=Cc2cc(C(C)(C)C)c(O)c(C(C)(C)C)c2)C1=O` [Example 34, 5-{[3,5-bis(1,1-dimethylethyl)-4-hydroxyphenyl]methylene}-3-[3-(methylamino)propyl]-4-thiazolidinone], the inhibition in vivo at 50 mg/kg is reported as 1.6%.
